Data reported in US20100016387A1, “METHOD OF TREATMENT” (priority 2006, published 2010).

Tests used:
[1] = system: neonatal rat cardiomyocytes; assay: Fatty acid oxidation (14CO2 release from 14C-palmitate) in rat primary cardiomyocytes treated with DGAT1 inhibitor; settings: 1 μM, 2 hr
Description: Neonatal Rat Ventricular Myocytes (NRVM's) were extracted from 1-3 day old Sprague Dawley rat pups. […] Both the right and left ventricles were digested in CBHHF media containing 0.2% Trypsin, 100 U Penn-Strep and DNAse II. […] Fibroblasts were separated from the myocytes by preplating for 30 min. […] Myocytes were then collected and cultured in MEM/5% FBS/Pen-Strep/BrDU/L-Gln overnight at 37 C, 5.0% CO2 at a confluency of 75-80% (1.8×10^6 cells per well of a 6 well plate and 0.9×10^6 cells per well of a 12 well plate). The following day myocyte containing plates were assayed for fatty acid oxidation capacity.
Rat primary cardiomyocytes were plated in either 6 well plate or 12 well plate. […] The sample was counted on a beta scintillation counter after resting for at least 2 hours. […]
Primary rat cardiomyocytes were incubated with 1 μM {4-[4-(4-Amino-7,7-dimethyl-7H-pyrimido[4,5-b][1,4]oxazin-6-yl)-phenyl]-cyclohexyl}-acetic acid for 2 hr. The cells were then incubated with ^14C-labeled palmitate and liberated ^14CO2 was determined as described. […]
Primary rat cardiomyocytes were incubated with 1 μM {4-[4-(4-Amino-7,7-dimethyl-7H-pyrimido[4,5-b][1,4]oxazin-6-yl)-phenyl]-cyclohexyl}-acetic acid for 2 hr. The cells were then incubated with ^14C-labeled palmitate, with 0.5 mM glucose, and liberated ^14CO2 was determined as described. […]

| melting point [°C] | Compound | fatty acid oxidation in cardiomyocytes in presence of glucose ([1]; 0.5 mM glucose, FIG. 3, p<0.05) | decrease in the ability of cells to oxidize [14C]palmitate ([1]; absence of glucose, FIG. 2, p<0.05) [%] |
| --- | --- | --- | --- |
| – | CC1(C)Oc2ncnc(N)c2N=C1c1ccc(C2CCC(CC(=O)O)CC2)cc1 (stereo not drawn) | robust decrease in fatty acid oxidation | ~15 |
| 223 to 225 | Cc1ccc(NC(=O)c2ccc3c(c2)C(=O)N(c2c(C)cccc2C)C3=O)cc1C | – | – |
